Measured values from ChEMBL document CHEMBL5113403, “Design, synthesis, and biological evaluation of novel pyrazolo [3,4-d]pyrimidine derivatives as potent PLK4 inhibitors for the treatment of TRIM37-amplified breast cancer” (Eur J Med Chem, 2022).

Legend:
[1] = Metabolic stability in human liver microsomes assessed as compound remaining at 100 uM measured after 60 mins in the presence of NADPH by LC-MS/MS analysis; format: ADME, Microsome; conditions: read-out: Stability
[2] = system: BT-474; assay: Antiproliferative activity against human BT-474 cells assessed as cell growth inhibition incubated for 5 days by MTT assay; format: functional, cell-based; conditions: BT-474, 120 h
[3] = Clearance in Sprague-Dawley rat at 3 mg/kg, iv by LC-MS/MS analysis; format: ADME, organism-based; conditions: in vivo
[4] = system: MCF7; assay: Induction of cell cycle arrest in human MCF7 cells assessed as less G1 phase cells at 1 uM measured after 48 hrs by flow cytometry analysis (reference value: 0.44 %); format: functional
[5] = AUCinfinity in Sprague-Dawley rat at 10 mg/kg, po by LC-MS/MS analysis; format: ADME, organism-based; parameters: time infinity, dose 10 mg/kg, route po; conditions: in vivo
[6] = system: MCF7; assay: Induction of cell cycle arrest in human MCF7 cells assessed as S phase cells at 1 uM measured after 48 hrs by flow cytometry analysis (reference value: 9.31 %); format: functional
[7] = Cmax in Sprague-Dawley rat at 10 mg/kg, po by LC-MS/MS analysis; format: ADME, organism-based; parameters: dose 10 mg/kg, route po; conditions: in vivo
[8] = molecular target: CYP3A4 (Homo sapiens, UniProt P08684); assay: Inhibition of CYP3A4 in human liver microsomes at 10 uM preincubated for 10 mins followed by addition of NADPH-regenerating system and measured after 15 mins by LC-MS/MS analysis relative to control; format: ADME, Microsome; conditions: time 25 min
CYP3A4, sequence (P08684 whole entry): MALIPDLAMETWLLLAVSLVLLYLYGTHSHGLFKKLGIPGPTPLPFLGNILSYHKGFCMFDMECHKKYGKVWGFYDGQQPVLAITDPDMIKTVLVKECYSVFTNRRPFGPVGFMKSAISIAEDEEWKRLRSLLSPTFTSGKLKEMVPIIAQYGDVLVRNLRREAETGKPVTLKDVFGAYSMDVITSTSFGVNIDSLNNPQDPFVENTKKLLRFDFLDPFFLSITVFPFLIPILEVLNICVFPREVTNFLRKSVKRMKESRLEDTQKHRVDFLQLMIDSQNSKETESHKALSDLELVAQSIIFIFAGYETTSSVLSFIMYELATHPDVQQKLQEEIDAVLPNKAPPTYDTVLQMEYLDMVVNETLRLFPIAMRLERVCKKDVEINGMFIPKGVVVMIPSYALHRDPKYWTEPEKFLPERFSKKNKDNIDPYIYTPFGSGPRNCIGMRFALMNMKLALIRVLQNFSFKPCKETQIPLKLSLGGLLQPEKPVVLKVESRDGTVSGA

[9] = system: MCF7; assay: Induction of apoptosis in human MCF7 cells assessed as viable cells at 2.5 uM incubated for 48 hrs by Annexin-V-FITC/PI staining based flow cytometric analysis (reference value: 97 %); format: functional
[10] = Plasma stability in human assessed as compound remaining at 100 uM measured after 10 mins by LC-MS/MS analysis relative to control; format: ADME, cell-free; conditions: read-out: Stability
[11] = system: MCF7; assay: Induction of apoptosis in human MCF7 cells assessed as necrotic cells at 0.10 uM incubated for 48 hrs by Annexin-V-FITC/PI staining based flow cytometric analysis (reference value: 0.18 %); format: functional; conditions: dose 0.1 µM
[12] = system: MCF7; assay: Induction of cell cycle arrest in human MCF7 cells assessed as less G1 phase cells at 0.10 uM measured after 48 hrs by flow cytometry analysis (reference value: 0.44 %); format: functional; conditions: dose 0.1 µM
[13] = system: MCF7; assay: Induction of apoptosis in human MCF7 cells assessed as necrotic cells at 1 uM incubated for 48 hrs by Annexin-V-FITC/PI staining based flow cytometric analysis (reference value: 0.18 %); format: functional
[14] = Metabolic stability in human liver microsomes assessed as intrinsic clearance at 100 uM measured upto 60 mins in the presence of NADPH by LC-MS/MS analysis; format: ADME, Microsome; conditions: 1 h
[15] = system: MCF7; assay: Induction of cell cycle arrest in human MCF7 cells assessed as G2 phase cells at 0.10 uM measured after 48 hrs by flow cytometry analysis (reference value: 31.8 %); format: functional; conditions: dose 0.1 µM

Which results are given for `Cc1cc(Nc2nc(NCc3ccc(F)cc3F)nc3c2cnn3C2CCOCC2)n[nH]1`?
remaining at 1 h, 100 µM [1]: 25.2%; IC50 [2]: 2350 nM; clearance [3]: 47.2 mL/min/kg; Activity [4]: 0.37%; AUC(0-inf) [5]: 301 ng·h/mL; Activity [6]: 19.2%; Cmax [7]: 81.1 ng/mL; inhibition at 0.25 h, 10 µM [8]: 0%; Activity [9]: 19.7%; remaining at 10 min, 100 µM [10]: 108%; Activity [11]: 1.15%; Activity [12]: 0.37%; Activity [13]: 0.69%; CLint [14]: 46.8 µL/min/mg; Activity [15]: 38%
